Laboratory results as given in PMC6695731, “Application of a Substrate-Mediated Selection with c-Src Tyrosine Kinase to a DNA-Encoded Chemical Library” (Molecules, 2019).
Several values for one entry are separate records, joined by “and”; a condition that tells them apart may be missing. Identical values can stand only once. Entries after “also recorded” stand apart in the source; their conditions may differ.

Legend:
c-Src [1] = target: T1, c-Src (Homo sapiens, UniProt P12931); test: NADH-based coupled enzyme assay detecting ADP generation; assay type: biochemical; conditions: 1 mM ATP, 100 µM compound, 12 nM Src, 30 °C, 3 h
Procedure: (§1) To confirm this, compounds were tested with an NADH-based, coupled enzyme assay that also detects ADP generation. […] This additionally supported that the ADP-Glo activity observed was due to activation of ATP hydrolysis and not phosphotransfer to these compounds.
Kinase reaction was performed as follows 1x kinase buffer (25 mM Tris-HCl (pH 7.5), 2 mM dithiothreitol (DTT), 0.1 mM Na3VO4, 10 mM MgCl2), 1 mM ATP, 100 μM peptides and 12 nM Src at 30 °C for 3 h. The kinase reaction mixture was incubated with 30 unit/mL lactic dehydrogenase (LDH), 20 unit/mL pyruvate kinase (PK), 2 mM phosphoenolpyruvate (PEP), and 1 mM NADH. The absorbance of NADH was monitored at 340 nm.
Figure S8. NADH Coupled Assay of Hit Molecules with c-Src. Samples were composed of 1 mM ATP,
100 µM putative substrate molecules, and 12 nM c-Src kinase at 30 C for 3 hours. Full method description
is provided in Methods and Materials 4.6 NADH assay.

c-Src [2] = target: T1, c-Src; test: ADP-Glo assay of compounds as c-Src substrates (ADP production); assay type: biochemical
Procedure: Hit molecules were initially characterized as substrates for c-Src using the luciferase-based ADP-Glo assay (Promega). All six molecules appeared to be efficient substrates for Src kinase.
Kinase reaction was performed as follows 1x kinase buffer (25 mM Tris-HCl (pH 7.5), 2 mM dithiothreitol (DTT), 0.1 mM Na3VO4, 10 mM MgCl2), 1 mM ATP, different concentrations (1 μM to 100 μM) of substrates (either off DNA or on DNA hit molecules), and 12 nM rSrc by incubation for 2 h at 30 °C. After that, distinct 55mers were annealed to each kinase reaction, as previously described. The annealed reactions were incubated with anti Pho-Tyr loaded protein G magnetic bead at RT for 30 min. After washing by three times 20 μL 1xPBST with 1 mg/mL BSA, 1 mg/mL tRNAs), the captured samples were eluted by 20 μL of 1 mM phenylphosphate. The resulting supernatant was then used as a template in qPCR.
After the kinase reaction was performed as previous section, the reaction mixture (5 μL) was incubated with 5 µL of ADP-Glo™ reagent at RT for 40 min and then add 10 µL of kinase detection reagent at RT for 1 h. The luminescence was measure by plate reader.

c-Src [3] = target: T1, c-Src; test: substrate-mediated selection of DNA conjugates (c-Src treatment, anti-phosphotyrosine pulldown), enrichment by qPCR; assay type: biochemical; conditions: purified DNA conjugates, with kinase treatment
Procedure: To mimic library selection conditions, a DNA-LYNtide construct was mixed with a control construct at a ratio of 1 to 500. This mixture was treated at 50 nM total DNA concentration with Src kinase and the selection was applied. We observed robust enrichment (2600-fold) and recovery (9%) of the LYNtide construct by qPCR (Figure S3).
We then questioned if SrcDEL10 was indeed selected from the library based on the ability to serve as a Src substrate and accept a phosphate.
For optimization of substrate-based selection, two unique 180-mer constructs were prepared by PCR, as previously described. Each contained two unique 20-mer sequences for specific amplification and detection in qPCR. One was prepared with an unmodified forward primer as a control. The other was prepared using a LYNtide 20-mer oligo conjugate as a primer.
Kinase reaction was performed as follows 1x kinase buffer (25 mM Tris-HCl (pH 7.5), 2 mM dithiothreitol (DTT), 0.1 mM Na3VO4, 10 mM MgCl2), 1 mM ATP, different concentrations (1 μM to 100 μM) of substrates (either off DNA or on DNA hit molecules), and 12 nM rSrc by incubation for 2 h at 30 °C. After that, distinct 55mers were annealed to each kinase reaction, as previously described. […]
Figure S3. […] In a model enrichment assay, enrichment for tyrosine kinase substrates was detected by qPCR of model 180-mer constructs. […]

c-Src [4] = target: T1, c-Src; test: HPLC and LC/MS analysis of phosphorylation of the compound by c-Src; assay type: biochemical
Procedure: as §1
(a) on-DNA binding affinity to c-Src measured by fluorescence polarization in the presence of ATP (100 µM). […] Peak identity was verified by LC/MS analysis (Figure S9). […]
Kina se R e a c t ion w it h 1µM Src
Figure S7. HPLC Analysis of LYNtide Phosphorylation. The kinase reaction was performed by incubating 200 µM LYNtide with Src in 1x kinase buffer (as outlined in section 4.6 NADH coupled assay, […]
with 1mM ATP) for 30 min. […] Peak […]
identities were verified by LC/MS. The peak at 19 minutes is an impurity in the LYNtide alkyne preparation, which was also phosphorylated. […]
[M+H ]+ cal cd. […] O OH […]
Figure S9. LC/MS analysis of SrcDEL10 Phosphorylation. […]
µM ATP and 0.3 µM c-Src at 30 C for 16 hours. […]
and 10 µM c-Src at 30 C for 16 hours. […]

c-Src [5] = conditions: LYNtide kinetic parameters for Src; cited from earlier work
c-Src [6] = target: T1, c-Src; test: radiolabel (32P-ATP) inhibition assay of LYNtide phosphorylation by c-Src; assay type: biochemical; conditions: 32P-ATP 50 µM, biotinylated-LYNtide 50 µM
Procedure: The original six off-DNA hits were tested for inhibition of c-Src activity. For these tests, we used ^32P-ATP as a substrate and detected phosphorylation levels of a biotinylated-LYNtide substrate after adsorption to streptavidin coated membranes. This assay should not be affected by activation of ATP hydrolysis or phosphotransfer to the small molecules. […] There was no apparent correlation of these values to the Km or kcat values in the prior assays as substrates.
Each hit molecule was preincubated with 1.2 nM c-Src at 30 °C for 30 min. The kinase reaction was initiated with the addition of 50 μM LYNtide and 50 μM ATP with 0.15 μCi gamma ^32P ATP at 30 °C for 10 min. The kinase reaction samples (2 µL) were spotted on P81 filter paper consisting of 1.5 cm squares. After air dry, the P81 papers were washed 4 times with 0.5% phosphoric acid for 5 min each. The P81 papers were washed one time with acetone for 5 min. The papers were then allowed to air dry for about 20 min. The dried P81 papers were analyzed by liquid scintillation counter.
Figure 6 Inhibition of hit molecules in a radiolabel assay with ^32P-ATP (50 µM) and biotinylated-LYNtide (50 µM) as substrates.

[7] = tested on: STAT3 phosphorylation in NME cells; test: cell signaling immunoblot, EGF-stimulated STAT3 phosphorylation (Src-dependent); assay type: cell-based, murine; conditions: 100 µM prior to EGF (50 ng/mL, 30 min)
Description: Epidermal growth factor (EGF) stimulation of NME cells leads to STAT3 phosphorylation via a Src-dependent process. […] The broad specificity Src family inhibitor, PP2, was used as a positive control. Importantly, phosphorylation of ERK1/2, which occurs via a Src independent pathway, was not reduced. Similarly, autophosphorylation of EGFR at Y1068 was not affected.
NME cells were constructed via stable overexpression of EGFR in normal murine mammary gland (NMuMG) cells as previously described. These cells were cultured in DMEM containing 10% FBS, 10 μg/mL insulin, penicillin, and streptomycin. For cell signaling assays, cells were plated for 24 h prior to removal of the FBS for an additional 24 h. During this serum starvation, PP2 (Sigma, 529576) or SrcDEL10-ester were added as indicated, and cells were subsequently stimulated with EGF (50 ng/mL) (Goldbio, 1150-04) for 30 min. […] Differential binding of these antibodies was detected using their appropriate secondary antibodies.
NME cells were serum deprived for 24 h in the presence of vehicle control (DMSO), Src family inhibitor PP2 (10 µM), or SrcDEL10-ester (100 µM) for the indicated amounts of time. […] Equal protein aliquots were analyzed by immunoblot with the indicated antibodies. […]

Src = Src (Homo sapiens, UniProt P12931); test: HPLC-assessed inhibition of LYNtide phosphorylation; assay type: biochemical
Procedure: Kina se R e a c t ion w it h 1 0 nM Sr c
KR with LynT ide N-Alkyne (50uM)
Kina se R e a c t ion w it h 1 0 nM Sr c + Sr c D E L 1 0
300 ~ 25% phosphorylation
KR with LynT ide N-Alkyne (50uM) + Cmpd 10 (100uM)
Figure S11. […] The kinase reaction
30 min, if applicable) in 1x kinase buffer (as outlined in 4.6 NADH coupled assay, with 1mM ATP) for 30

c-Src [8] = target: T1, c-Src; test: on-DNA binding affinity to c-Src by fluorescence polarization in the presence of ATP; conditions: ligand linked to 20-mer oligo hybridized to FAM oligo; ATP 100 µM; read-out: binding constant (Kd)
Procedure: These studies used the HPLC-purified ligand linked to 20-mer oligos, which were prepared for the prior qPCR validations under crude conditions. This construct was hybridized to a fluorescein-containing complementary oligo, and binding constants were determined by changes observed in fluorescence polarization, as previously described.
(a) on-DNA binding affinity to c-Src measured by fluorescence polarization in the presence of ATP (100 µM). […] Peak identity was verified by LC/MS analysis (Figure S9).

[9] = Table S3, ADP-Glo assay of SrcDEL10 derivatives, enzyme Src

Compound | ADP generation relative to compound (c-Src [1]) | kcat (c-Src [2]; ADP-Glo assay) [s⁻¹] | Km (c-Src [2]; ADP-Glo assay, compound as substrate of c-Src) | Km (c-Src [2]; [9]) [µM] | Vmax (c-Src [2]; [9]) [µM/min] | kcat (c-Src [2]; [9]) [s⁻¹] | enrichment in qPCR selection assay (c-Src [3]) | extent of phosphorylation (c-Src [4]; 1 µM c-Src, 200 µM LYNtide, 1 mM ATP, 30 min) | Km (c-Src [5]) [µM] | kcat (c-Src [5]) [s⁻¹] | IC50 (c-Src [6]) [µM] | STAT3 phosphorylation levels after EGF stimulation [7] | inhibition at 100 µM (Src) [%] | LYNtide phosphorylation in presence of compound (Src; 100 µM SrcDEL10, 50 µM LYNtide, 10 nM Src, 50% without compound) | SrcDEL10-phos. fraction by LC/MS (c-Src [4]; SrcDEL10 100 µM, 100 µM ATP, 10 µM c-Src, 30 C, 16 hours (Figure S9b)) [%] | phosphorylated compound formed (c-Src [4]; enzyme 1 µM, SrcDEL10 200 µM, ATP 1 mM, HPLC, LC/MS) | Kd (c-Src [8]) [µM]
DEDIYGVLP [LYNtide, optimal peptide substrate for Lyn tyrosine kinase, a Src family kinase, reference compound] | approximately one equivalent | 6.5 | 5 µM and 5.2 µM | 5.23 | 1.17 | 6.47 | 10,000 fold | full phosphorylation; also recorded: fully phosphorylated | 18 | 2.0 |  |  |  |  |  |  | 
NC(=O)CN(CCc1ccc(O)cc1)C(=O)[C@H](CC(=O)O)NC(=O)c1ccc(CN(CC2CC2)C(=O)CCO)cc1 [SrcDEL10] |  |  |  |  |  |  |  |  |  |  | 48 | No reduction | ~50 | ~ 25% | 54 | ~ 1% | 7.5
